Experimental data published in patent US10774039B2, “Cyclopropene amino acids and methods” (United Kingdom Research and Innovation, priority 2014, dated 2020).

Legend:
DH10B cells = assay: E. coli growth (OD600) in presence of 3 during SORT-M; type: cell-based
Procedure: Chemically competent DH10B cells were transformed with two plasmids: pBKwtPylRS necessary for expression of PylRS, and pBAD_wtT4L_MbPylTXXX plasmids that is required for expression of PyltRNAXXX and expresses lysozyme under arabinose control. […] 200 μL aliquots of these cultures were transferred into a 96-well plate and OD600 measured using a Microplate reader, Infinite 200 Pro (TECAN). OD600 was measured for each sample every 10 min with linear 1 mm shaking between the measurements.

PylRS/tRNACUA pair [1] = biological target: T1, PylRS/tRNACUA pair (Methanosarcina mazei, UniProt Q8PWY1); assay: Amber suppression of mCherry-TAG-EGFP-HA in HEK293 cells (western blot); type: cell-based; set-up: expressed in transfected cells; host or cells: HEK293 (ATCC CRL-1573); conditions: amber stop codon
T1 sequence (Q8PWY1 whole entry): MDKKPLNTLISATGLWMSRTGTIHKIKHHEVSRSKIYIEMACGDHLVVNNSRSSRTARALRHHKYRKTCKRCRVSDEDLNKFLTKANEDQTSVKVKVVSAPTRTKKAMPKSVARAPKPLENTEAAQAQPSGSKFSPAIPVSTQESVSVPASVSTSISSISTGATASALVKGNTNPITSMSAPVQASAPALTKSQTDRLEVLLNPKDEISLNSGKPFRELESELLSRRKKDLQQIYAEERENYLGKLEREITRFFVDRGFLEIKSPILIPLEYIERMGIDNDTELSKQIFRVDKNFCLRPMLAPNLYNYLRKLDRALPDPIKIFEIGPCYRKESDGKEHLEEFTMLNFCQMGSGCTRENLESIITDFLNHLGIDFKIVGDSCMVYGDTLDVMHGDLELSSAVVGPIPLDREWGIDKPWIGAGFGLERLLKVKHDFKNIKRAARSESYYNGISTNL
Procedure: Anti-FLAG detected tagged PylRS. FIG. 8B: Specific labelling of mCh-TAG-EGFP-HA (immunoprecipitated from 10^6 cells) with 4a (20 μM in 50 μL PBS, 1 h, RT) confirms the incorporation of 3 into protein in HEK293 cells. FIG. 8C: SORT-M labelling of 3 that is statistically incorporated into newly synthesised proteins across the whole proteome of mammalian cells directed by six different PylRS/PyltRNAXXX (mutants using 0.5 mM 3. Labeling with 4g (20 μM in PBS, 1 h, RT, as above). The amino acids in parentheses are the natural amino acids encoded by the endogenous tRNA bearing the corresponding anti-codon.
HEK293 Cells (ATCC CRL-1573) were plated on 24 well plates and grown to near confluence. The cells were transfected using Lipofectamine 2000 (Invitrogen) with the pMmPylS-mCherry-TAG-EGFP-HA construct and the p4CMVE-U6-PylT construct.^18 After 16 hrs growth with or without 1 mM 3 or with 1 mM 1 the cells were lysed on ice using RIPA buffer (Sigma). The lysates were spun down and the supernatant was added to 4×LDS sample buffer (Life technologies). The samples were run out by SDS-PAGE, transferred to a nitrocellulose membrane and blotted using primary rat anti-HA(clone 3F10, Roche, No. 867 423) and mouse anti-FLAG (clone G191, Abnova, cat. MAB8183), the secondary antibodies were anti-rat (Invitrogen, A11077) and anti-mouse (Cell Signaling Technologies, No. 7076S).

PylRS/tRNACUA pair [2] = biological target: T1, PylRS/tRNACUA pair; assay: Dual luciferase reporter assay on ovary extract of flies fed amino acid; type: in vivo, D. melanogaster; set-up: expressed in transfected cells; host or cells: transgenic Drosophila melanogaster, ovaries (UAS-PylRS driven by nos-vp16-GAL4); conditions: flies fed 10 mM amino acid
Procedure: Dual luciferase assay on ovary extract from 10 female flies expressing Triple-Rep-L in the presence or absence of 10 mM 1 or 10 mM 3. […] The error bars represent the standard deviation of 3 technical replicates from a single biological replicate. FIG. 10B: Site-specific incorporation of 3 (or 1) into GFP_TAG_mCherry-HA in flies expressing PylRS/PyltRNACUA. The full-length protein resulting from unnatural amino acid incorporation is detected by anti-HA western blot. FIG. 10C: Specific labelling of encoded 3 with tetrazine probes. Flies were fed with no amino acid, amino acid 1 (500 flies) or amino acid 3 (100 flies). […] The full-length protein containing the unnatural amino acid was immunoprecipitated from lysed ovaries with anti-GFP beads. The beads were labelled (4g, 4 μM, 200 μL, PBS, RT, 2 h) washed.
Transgenic lines were created by P element insertion using a Drosophila embryo injection service (BestGene Inc.). Lines were generated using the following plasmids: pFT58 (Ala), pFT60 (Ser), pFT62 (Leu) and pFT63 (Met). nos-Gal4-VP16 (Bloomington 4937) and MS1096-Gal4 (Bloomington 8860) were used as Gal4 drivers. All flies were grown at 25° C. on standard Iberian medium. Flies were fed unnatural amino acids by mixing dried yeast with the appropriate concentration of amino acid (usually 10 mM) diluted in dH2O to make a paste. Ovaries were prepared from females that were grown on Iberian fly food supplemented with a yeast paste with or without the amino acid for a minimum of 48 hours. For proteome labelling experiments transgenic male flies of constructs FT58, FT60, FT62 and FT63 were crossed with nos-vp16-GAL4 virgins to generate FT58/nos-vp16-GAL4, FT60/nos-vp16-GAL4, FT62/nos-vp16-GAL4 and FT63/nos-vp16-GAL4 respectively.
Ovaries from 10 females of Triple Rep-L flies recombined with nos-Gal4-VP16 fed 3, 1 or no amino acid were dissected in 100 μl 1× Passive lysis buffer and processed for luciferase assays as previously described^20.

**Q.** How did the “toxicity to cells of incorporation via SORT-M” value (DH10B cells; 0.1 mM) turn out when `CC1=CC1COC(=O)NCCCC[C@H](N)C(=O)O` (stereo partly drawn) [amino acid 3, N^ε-[((2-methylcycloprop-2-en-1-yl)methoxy)carbonyl]-L-lysine] was run?
**A.** Its value is “Not Toxic”.

**Q.** And the “effect on cell growth” value (DH10B cells; 0.1 or 0.5 mM)?
**A.** Its value is “little or no effect on cell growth”.

**Q.** And the “full-length mCherry-EGFP-HA protein expression” value (PylRS/tRNACUA pair [1])?
**A.** Its value is “detected only in the presence”.

**Q.** And the “dual luciferase signal compared with 1” value (PylRS/tRNACUA pair [2])?
**A.** The value was “larger”.

**Q.** And the “luciferase signal dependent on amino acid addition” value (PylRS/tRNACUA pair [2])?
**A.** The value was “strong luciferase signal”.
